Patent US8916526B2, “Flavanone derivative” (National University Corporation Okayama University, priority 2009, dated 2014)
Values after ≈ are worked out from the molar mass of the structure shown.

Columns and labels:
[1] = system: Vancomycin intermediate-resistant Staphylococcus aureus Mu50; test: In vitro infectivity assay (MIC), Exp. Ex. 2-1; assay type: cell-based; details: Staphylococcus aureus, VISA; Gram-positive; microdilution, MIC after 24 h; read-out: MIC VISA Mu50
Procedure: (§1) The antibacterial activities were measured based on broth dilution techniques of international standards (Clinical Laboratory Standards Institute: CLSI). The activities were shown by minimum inhibitory concentrations (MICs) determined by inoculating the above-mentioned strains at a concentration of about 10^5 […] into Mueller-Hinton broth (manufactured by Difco) containing 0.85% NaCl in 96-well microplates and incubating the plates at 35° C. for 24 hours. Measurement was carried out three times.
(§2) The antibacterial activities of the compounds of the present invention against various strains such as vancomycin-resistant enterococci (VRE), vancomycin intermediate-resistant Staphylococcus aureus (VISA), methicillin-resistant Staphylococcus aureus (MRSA), and methicillin-sensitive Staphylococcus aureus (MSSA) were examined. Of the bacteria used in MIC measurement in this test example, clinical bacteria of MRSA (OM481 strain and OM584 strain) were supplied from Okayama University Hospital (Japan). An MRSA strain N315, a vancomycin intermediate-resistant Staphylococcus aureus (VISA) strain Mu50, and a methicillin-sensitive Staphylococcus aureus (MSSA) strain FDA 209P were used as controls. Vancomycin-resistant enterococcus (VRE) strains NCTC 12201 and FN-1 were supplied from the National Institute of Infectious Disease (Japan).

[2] = system: Vancomycin-resistant enterococci FN-1; test: In vitro infectivity assay (MIC), Exp. Ex. 2-1; assay type: cell-based; details: Enterococcus, VRE; Gram-positive; microdilution, MIC after 24 h; read-out: MIC VRE FN-1
Procedure: as §1, §2

[3] = system: Vancomycin-resistant enterococci NCTC 12201; test: In vitro infectivity assay (MIC), Exp. Ex. 2-1; assay type: cell-based; details: Enterococcus, NCTC 12201 / VRE; Gram-positive; microdilution, MIC after 24 h; read-out: MIC VRE NCTC 12201
Procedure: as §1, §2

[4] = system: Methicillin sensitive S. aureus 209P; test: In vitro infectivity assay (MIC), Exp. Ex. 2-1; assay type: cell-based, Staphylococcus aureus; details: Staphylococcus aureus, 209P / MSSA; Gram-positive; microdilution, MIC after 24 h; read-out: MIC MSSA 209P
Summary of the method: (§3)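 CLSI broth dilution; Mueller-Hinton + 0.85% NaCl; inoculum ~10^5 CUF/[…]; 35° C, 24 h; MIC read, n=3.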

[5] = system: Methicillin-resistant S. aureus COL; test: In vitro infectivity assay (MIC), Exp. Ex. 2-1; assay type: cell-based, Staphylococcus aureus; details: Staphylococcus aureus, MRSA; Gram-positive; microdilution, MIC after 24 h
[6] = system: Methicillin-resistant S. aureus N315; test: In vitro infectivity assay (MIC), Exp. Ex. 2-1; assay type: cell-based, Staphylococcus aureus; details: Staphylococcus aureus, MRSA; Gram-positive; microdilution, MIC after 24 h; read-out: MIC MRSA N315
Summary of the method: as §3

[7] = system: Methicillin-resistant S. aureus OM481; test: In vitro infectivity assay (MIC), Exp. Ex. 2-1; assay type: cell-based, Staphylococcus aureus; details: Staphylococcus aureus, MRSA; Gram-positive; microdilution, MIC after 24 h; read-out: MIC MRSA OM481
Summary of the method: as §3

[8] = system: Methicillin-resistant S. aureus OM584; test: In vitro infectivity assay (MIC), Exp. Ex. 2-1; assay type: cell-based, Staphylococcus aureus; details: Staphylococcus aureus, MRSA; Gram-positive; microdilution, MIC after 24 h; read-out: MIC MRSA OM584
Summary of the method: as §3

[9] = system: Streptococcus pneumoniae R6; test: In vitro infectivity assay (MIC), Exp. Ex. 2-1; assay type: cell-based; details: Streptococcus pneumoniae, R6; Gram-positive; microdilution, MIC after 24 h; read-out: MIC S. Pneumoniae R6
Escherichia coli K-12 = test: Antibacterial activity (MIC) against Gram-negative strains, microdilution; assay type: cell-based; details: K12, MIC after 24 h, read-out: MIC (Gram-nagative) K-12
Summary of the method: (§4)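 CLSI broth microdilution in Mueller-Hinton broth with 0.85% NaCl, inoculum about 10^5 […]. Incubated 35° C for 24 hours; MIC taken as the minimum inhibitory concentration, measured three times.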

[10] = system: Pseodomonas aeruginosa PAOI; test: as above; assay type: cell-based; details: MIC after 24 h, read-out: MIC (Gram-nagative) PAO1
Summary of the method: as §4

E. coli DNA gyrase = target: T1, E. coli DNA gyrase (Escherichia coli, UniProt P0AES4+P0AES6); test: DNA gyrase inhibition (supercoiling kit), Exp. Ex. 2-2; assay type: biochemical
T1 construct: purchased John Innes Enterprises #K0001
T1 sequence (P0AES4 whole entry, one chain of several): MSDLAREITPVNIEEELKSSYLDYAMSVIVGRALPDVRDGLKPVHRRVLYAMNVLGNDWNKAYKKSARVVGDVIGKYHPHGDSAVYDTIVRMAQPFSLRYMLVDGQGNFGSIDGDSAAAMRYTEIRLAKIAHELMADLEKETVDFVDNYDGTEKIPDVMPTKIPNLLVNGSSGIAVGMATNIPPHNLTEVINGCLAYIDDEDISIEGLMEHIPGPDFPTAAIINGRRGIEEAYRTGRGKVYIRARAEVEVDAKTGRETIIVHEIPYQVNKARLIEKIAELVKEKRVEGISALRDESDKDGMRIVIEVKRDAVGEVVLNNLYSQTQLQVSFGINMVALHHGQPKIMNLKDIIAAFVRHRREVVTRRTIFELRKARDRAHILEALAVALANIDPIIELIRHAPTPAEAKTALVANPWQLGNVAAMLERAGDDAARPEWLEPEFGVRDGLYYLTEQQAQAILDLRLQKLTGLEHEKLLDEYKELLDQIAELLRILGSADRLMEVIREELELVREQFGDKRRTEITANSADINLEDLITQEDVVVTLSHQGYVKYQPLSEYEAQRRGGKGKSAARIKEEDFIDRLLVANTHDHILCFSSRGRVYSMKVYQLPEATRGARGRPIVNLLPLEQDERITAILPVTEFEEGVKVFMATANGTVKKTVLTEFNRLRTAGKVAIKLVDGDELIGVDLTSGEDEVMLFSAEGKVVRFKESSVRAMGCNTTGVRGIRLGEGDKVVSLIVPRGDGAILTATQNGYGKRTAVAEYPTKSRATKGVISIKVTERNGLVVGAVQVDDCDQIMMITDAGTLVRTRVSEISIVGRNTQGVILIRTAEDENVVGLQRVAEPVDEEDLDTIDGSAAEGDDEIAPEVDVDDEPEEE
Summary of the method: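 Supercoiling of relaxed pBR322 DNA ([…]) by 1 U E. coli gyrase, 37° C for 30 minutes, in 35 mM Tris-HCl pH 7.5 with 1 mM ATP, 4 mM MgCl2, 24 mM KCl, spermidine and DTT. Products resolved by electrophoresis to derive IC50.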

[11] = target: T2, Escherichia coli Topoisomerase IV (Escherichia coli, UniProt P0AFI2+P20083); test: Topoisomerase IV inhibition (decatenation kit), Exp. Ex. 2-3; assay type: biochemical; details: decatenation of kDNA, 37° C., 30 minutes; read-out: IC50 (E. coli topoisomerase IV inhibitions)
T2 construct: purchased John Innes Enterprises
T2 sequence (P20083 whole entry): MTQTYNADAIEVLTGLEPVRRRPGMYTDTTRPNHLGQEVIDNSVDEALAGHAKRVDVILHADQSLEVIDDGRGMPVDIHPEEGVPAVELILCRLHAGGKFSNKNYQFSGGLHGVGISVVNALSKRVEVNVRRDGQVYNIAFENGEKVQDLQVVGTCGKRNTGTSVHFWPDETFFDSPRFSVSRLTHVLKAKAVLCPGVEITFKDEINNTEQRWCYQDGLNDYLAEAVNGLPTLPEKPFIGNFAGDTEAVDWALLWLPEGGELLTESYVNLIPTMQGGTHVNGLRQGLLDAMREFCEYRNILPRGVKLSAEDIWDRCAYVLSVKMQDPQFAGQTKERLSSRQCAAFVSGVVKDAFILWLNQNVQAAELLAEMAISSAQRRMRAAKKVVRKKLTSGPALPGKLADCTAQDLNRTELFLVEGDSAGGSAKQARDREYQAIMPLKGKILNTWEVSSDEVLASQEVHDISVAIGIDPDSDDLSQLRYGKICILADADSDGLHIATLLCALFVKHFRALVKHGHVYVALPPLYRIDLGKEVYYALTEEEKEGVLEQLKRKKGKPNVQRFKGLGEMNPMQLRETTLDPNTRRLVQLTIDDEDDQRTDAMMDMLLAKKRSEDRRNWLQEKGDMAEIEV
T2 sequence (P0AFI2 whole entry): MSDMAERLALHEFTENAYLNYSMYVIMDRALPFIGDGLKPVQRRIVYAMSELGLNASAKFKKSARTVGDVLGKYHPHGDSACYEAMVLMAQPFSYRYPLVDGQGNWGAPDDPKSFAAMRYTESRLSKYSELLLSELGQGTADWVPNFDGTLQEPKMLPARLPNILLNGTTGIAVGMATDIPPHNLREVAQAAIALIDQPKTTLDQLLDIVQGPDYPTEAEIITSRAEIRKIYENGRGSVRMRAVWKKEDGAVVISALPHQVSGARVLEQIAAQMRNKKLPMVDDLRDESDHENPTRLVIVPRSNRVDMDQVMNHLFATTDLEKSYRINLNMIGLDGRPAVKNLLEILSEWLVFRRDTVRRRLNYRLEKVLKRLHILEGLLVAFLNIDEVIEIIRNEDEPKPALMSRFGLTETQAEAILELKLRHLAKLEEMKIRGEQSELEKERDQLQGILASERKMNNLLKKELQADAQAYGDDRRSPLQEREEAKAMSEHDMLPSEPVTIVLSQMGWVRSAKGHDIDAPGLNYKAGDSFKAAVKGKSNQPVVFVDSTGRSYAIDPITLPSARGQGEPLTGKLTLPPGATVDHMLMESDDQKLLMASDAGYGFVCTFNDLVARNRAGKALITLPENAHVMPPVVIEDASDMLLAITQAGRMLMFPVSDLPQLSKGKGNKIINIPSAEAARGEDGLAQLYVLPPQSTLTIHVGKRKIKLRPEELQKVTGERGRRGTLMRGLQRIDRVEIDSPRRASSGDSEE
Procedure: (§5) Staphylococcus aureus Topoisomerase IV and Escherichia coli Topoisomerase IV were purchased from John Innes Enterprises. 1 unit of topoisomerase IV was cultured with 200 ng of kinetoplast DNA (kDNA) in 30 L of a reaction solution at 37° C. for 30 minutes under the conditions of 50 mM Tris-HCl (pH 7.5) (S. aureus)/50 mM HEPES-KOH (pH 7.6) (E. coli), 5 mM MgCl2 (S. aureus)/5 mM magnesium acetate (E. coli), 350 mM potassium glutamate (S. aureus)/100 mM potassium glutamate (E. coli), 5 mM dithiotheri (S. aureus)/10 mM dithiotheri (E. coli), 1.5 mM ATP (S. aureus)/1 mM ATP (E. coli), and 40% (w/v) glycerol. The reactions were stopped by adding 8 L of a reaction stop solution (40% sucrose, 100 mM Tris.HCl (pH 7.5), 1 mM EDTA, 0.5 mg/ml bromophenol blue). Agarose gel (1.0%) was poured into TAE (40 mM Tris acetate, 2 mM EDTA).

[12] = target: T3, Staphylococcus aureus Topoisomerase IV (Staphylococcus aureus, UniProt P0C1S7+P0C1U9); test: as above; assay type: biochemical
T3 construct: purchased John Innes Enterprises
T3 sequence (P0C1U9 whole entry): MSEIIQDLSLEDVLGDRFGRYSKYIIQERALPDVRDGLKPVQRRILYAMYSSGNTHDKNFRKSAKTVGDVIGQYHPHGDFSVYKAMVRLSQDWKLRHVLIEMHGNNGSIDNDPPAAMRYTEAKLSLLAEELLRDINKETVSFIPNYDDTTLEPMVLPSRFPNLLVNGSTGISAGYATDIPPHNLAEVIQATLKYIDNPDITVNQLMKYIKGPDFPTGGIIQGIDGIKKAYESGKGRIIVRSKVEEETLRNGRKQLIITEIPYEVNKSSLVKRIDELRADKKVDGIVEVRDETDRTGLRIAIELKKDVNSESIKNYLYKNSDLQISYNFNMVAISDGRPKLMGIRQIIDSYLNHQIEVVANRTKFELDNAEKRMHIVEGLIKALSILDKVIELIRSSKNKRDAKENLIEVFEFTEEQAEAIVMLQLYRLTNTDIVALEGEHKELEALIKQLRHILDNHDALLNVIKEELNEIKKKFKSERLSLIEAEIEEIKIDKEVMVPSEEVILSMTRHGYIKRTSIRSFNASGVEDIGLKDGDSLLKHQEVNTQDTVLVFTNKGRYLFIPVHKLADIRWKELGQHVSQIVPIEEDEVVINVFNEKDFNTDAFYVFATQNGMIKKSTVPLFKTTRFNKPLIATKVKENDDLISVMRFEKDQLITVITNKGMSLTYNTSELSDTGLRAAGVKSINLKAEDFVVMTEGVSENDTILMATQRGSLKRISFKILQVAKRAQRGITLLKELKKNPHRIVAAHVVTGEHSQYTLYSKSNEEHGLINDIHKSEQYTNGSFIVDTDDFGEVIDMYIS
T3 sequence (P0C1S7 whole entry): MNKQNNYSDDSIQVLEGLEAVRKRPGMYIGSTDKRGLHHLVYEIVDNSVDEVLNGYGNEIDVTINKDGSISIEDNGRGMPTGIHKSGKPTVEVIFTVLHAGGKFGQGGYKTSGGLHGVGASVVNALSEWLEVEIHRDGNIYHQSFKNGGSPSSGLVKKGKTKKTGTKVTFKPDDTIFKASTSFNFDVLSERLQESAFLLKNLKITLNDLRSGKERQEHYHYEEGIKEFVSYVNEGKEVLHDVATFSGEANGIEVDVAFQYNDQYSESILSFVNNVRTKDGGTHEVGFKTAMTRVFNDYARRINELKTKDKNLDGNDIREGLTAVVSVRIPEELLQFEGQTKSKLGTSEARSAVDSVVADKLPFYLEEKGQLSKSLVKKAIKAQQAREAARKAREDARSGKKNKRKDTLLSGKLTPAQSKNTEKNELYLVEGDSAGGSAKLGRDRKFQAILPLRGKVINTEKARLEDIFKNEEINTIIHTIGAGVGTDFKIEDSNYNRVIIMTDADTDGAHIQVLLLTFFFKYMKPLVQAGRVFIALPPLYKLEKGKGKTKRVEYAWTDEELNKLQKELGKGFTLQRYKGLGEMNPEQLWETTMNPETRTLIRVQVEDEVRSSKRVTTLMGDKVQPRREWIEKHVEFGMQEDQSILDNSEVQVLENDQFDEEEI
Procedure: as §5

| SMILES | MIC [1] | MIC [2] | MIC [3] | MIC [4] | MIC [5] | MIC [6] | MIC [7] | MIC [8] | MIC [9] | MIC (Escherichia coli K-12) | MIC [10] | IC50 (E. coli DNA gyrase) | IC50 [11] | IC50 [12] | melting point |
| --- | --- | --- | --- | --- | --- | --- | --- | --- | --- | --- | --- | --- | --- | --- | --- |
| CCOc1ccc(C(=O)OC[C@H]2O[C@@H](Oc3c(-c4ccc(O)c(O)c4)oc4cc(O)cc(O)c4c3=O)[C@H](OC(=O)c3ccc(OCC)cc3)[C@@H](O)[C@H]2O)cc1 [Compound 14a, 2-(3″,4″-Dihydroxyphenyl)-5,7-dihydroxy-3-β-D-[2″,6″-di-O-(4-ethoxybenzoyl)]galactosyl-4H-chromen-4-one] | 4 µg/mL (≈ 5.26 µM) | 8 µg/mL (≈ 10.5 µM) | 8 µg/mL (≈ 10.5 µM) | 4 µg/mL (≈ 5.26 µM) | 16 µg/mL (≈ 21 µM) | 8 µg/mL (≈ 10.5 µM) | 4 µg/mL (≈ 5.26 µM) | 4 µg/mL (≈ 5.26 µM) | 4 µg/mL (≈ 5.26 µM) | > 128 µg/mL | > 128 µg/mL | 0.43 µM | 7.33 µM | 1.78 µM | 108 to 110 °C |
| CCCc1ccc(C(=O)OC[C@H]2O[C@@H](Oc3c(-c4ccc(O)c(O)c4)oc4cc(O)cc(O)c4c3=O)[C@H](OC(=O)c3ccc(CCC)cc3)[C@@H](O)[C@H]2O)cc1 [Compound 14b] | 4 µg/mL (≈ 5.29 µM) | 8 µg/mL (≈ 10.6 µM) | 4 µg/mL (≈ 5.29 µM) | 2 µg/mL (≈ 2.64 µM) | 16 µg/mL (≈ 21.1 µM) | 2 µg/mL (≈ 2.64 µM) | 4 µg/mL (≈ 5.29 µM) | 4 µg/mL (≈ 5.29 µM) | 2 µg/mL (≈ 2.64 µM) | > 128 µg/mL | > 128 µg/mL | 0.77 µM | 8.89 µM | 1.93 µM | 150 to 151 °C |
| Cc1ccc(CC(=O)OC[C@H]2O[C@@H](Oc3c(-c4ccc(O)c(O)c4)oc4cc(O)cc(O)c4c3=O)[C@H](OC(=O)Cc3ccc(C)cc3)[C@@H](O)[C@H]2O)cc1 [Compound 14d, 2-(3′,4′-Dihydroxyphenyl)-5,7-dihydroxy-3-β-D-[2″,6″-di-O-(4-methylphenylacetyl)]galactosyl-4H-chromen-4-one] | 4 µg/mL (≈ 5.49 µM) | 8 µg/mL (≈ 11 µM) | 4 µg/mL (≈ 5.49 µM) | 4 µg/mL (≈ 5.49 µM) | 16 µg/mL (≈ 22 µM) | 8 µg/mL (≈ 11 µM) | 2 µg/mL (≈ 2.74 µM) | 2 µg/mL (≈ 2.74 µM) | 2 µg/mL (≈ 2.74 µM) | > 128 µg/mL | > 128 µg/mL | 2.21 µM | 8.52 µM | 2.69 µM | 125 to 127 °C |
| O=C(CCc1ccc(O)cc1)OC[C@H]1O[C@@H](Oc2c(-c3ccc(O)c(O)c3)oc3cc(O)cc(O)c3c2=O)[C@H](OC(=O)CCc2ccc(O)cc2)[C@@H](O)[C@H]1O [Compound 14f, 2-(3′,4′-Dihydroxyphenyl)-5,7-dihydroxy-3-β-D-{2″,6″-di-O-[3′″-(4-hydroxyphenylpropanoyl)]}galactosyl-4H-chromen-4-one] | 2 µg/mL (≈ 2.63 µM) | 4 µg/mL (≈ 5.26 µM) | 4 µg/mL (≈ 5.26 µM) | 2 µg/mL (≈ 2.63 µM) | 4 µg/mL (≈ 5.26 µM) | 2 µg/mL (≈ 2.63 µM) | 1 µg/mL (≈ 1.31 µM) | 1 µg/mL (≈ 1.31 µM) | 4 µg/mL (≈ 5.26 µM) | > 128 µg/mL | > 128 µg/mL | 2.39 µM | 8.86 µM | 1.59 µM | 149 to 150 °C |
